Data set [1] relates to Yellow Fever Mosquito (Aedes aegypti, AEDSAE) larvae. Briefly: Bioassay on yellow fever mosquito (YFM), 96-well plate larval assay. The format is in vivo. Conditions: 4000 ppm (master plate solution), about 1 day-old larvae, 3 days.
The test system of data set [2] is Beet Armyworm (Spodoptera exigua, LAPHEG) second instar larva. Kind of data set: Bioassay on beet armyworm (BAW), 128-well diet tray assay. The format is in vivo. Conditions: 50 μg/cm^2 on artificial diet, 25° C., five days. The essentials:
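Test molecule in 90:10 acetone–water applied at 50 μg/cm^2 onto 1 mL artificial diet and dried; one second-instar larva per well, eight wells. Held 5 days at 25 °C, 14:10 light–dark; percent mortality averaged over the eight wells.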

The subject of data set [3] is target pests. Briefly: Screening of separated stereoisomer peaks against target pests. The data set is classed as in vivo. Conditions: SFC-separated R,R and S,S isomers (F107 and F108). The procedure:
trans-rac-N-(3-Amino-4-chlorophenyl)-2,2-dichloro-3-(4-fluoro-3-(trifluoromethyl)phenyl)cyclopropane-1-carboxamide (C20, 1.0 g, 2.27 mmol) was added to a solution of 2,6-difluoronicotinic acid (0.36 g, 2.27 mmol) in toluene (25 mL). Pyridine (0.72 mL, 9.05 mmol) was added dropwise, and 2,4,6-tripropyl-1,3,5,2,4,6-trioxatriphosphinane 2,4,6-trioxide as a 50% solution in ethyl acetate (5.8 mL, 9.05 mmol) was added at room temperature. The reaction mixture was warmed to 110° C. and stirred for 16 hours, cooled to room temperature, and concentrated under reduced pressure. The residue was diluted with water (80 mL) and was extracted with ethyl acetate (2×80 mL). The combined organic phases were washed with saturated aqueous sodium chloride, dried over anhydrous sodium sulfate, and filtered, and the filtrate was concentrated under reduced pressure.

For `O=C(Nc1cc(NC(=O)C2C(c3cc(Cl)cc(Cl)c3)C2(Cl)Cl)ccc1Cl)c1cccc(=O)[nH]1` (racemic), the melting point (as a rule, the temperature, or range, at which the solid turns liquid) is 312 to 316 °C. The same measure, in the same setting: the result for `O=C(Nc1cc(NC(=O)C2C(c3cc(Cl)cc(Cl)c3)C2(Cl)Cl)ccc1Cl)c1cc(C(F)(F)F)cc(C(F)(F)F)c1` (racemic) reads 109 to 113 °C. For the compound `COCC(=O)Nc1ccc(C(=O)Nc2cc(NC(=O)[C@H]3[C@H](c4ccc(F)c(C(F)(F)F)c4)C3(Cl)Cl)ccc2Cl)c(F)c1` (racemic) [F118, trans-rac-N-(2-Chloro-5-(2,2-dichloro-3-(4-fluoro-3-(trifluoromethyl)phenyl)cyclopropane-1-carboxamido)phenyl)-2-fluoro-4-(2-methoxyacetamido)benzamide], in data set [1], the “activity against YFM (scored based on mortality)” value (shortened to “activity against YFM”) is listed as “exhibited activity”. Further, in data set [2], the “activity against BAW (percent mortality, averaged over eight wells)” value is listed as “exhibited activity”. With `O=C(Nc1cc(NC(=O)[C@H]2[C@H](c3ccc(F)c(C(F)(F)F)c3)C2(Cl)Cl)ccc1Cl)c1ccc(F)nc1F` (single isomer, unassigned) [F107], in data set [3], the “efficacy against target pests, Peak-2 versus Peak-1” value is “significantly greater than Peak-1”. Take `O=C(Nc1c(F)ccc(NC(=O)[C@H]2[C@H](c3cc(Cl)c(Cl)c(Cl)c3)C2(Cl)Cl)c1F)c1ccc(F)cc1F` [F10, N-(3-((1R,3R)-2,2-dichloro-3-(3,4,5-trichlorophenyl)cyclopropane-1-carboxamido)-2,6-difluorophenyl)-2,4-difluorobenzamide]: in data set [1], the “activity against YFM” value is given as “exhibited activity”. Besides, the “activity against BAW (percent mortality, averaged over eight wells)” value in data set [2] was “exhibited activity”. For `O=C(Nc1c(F)ccc(NC(=O)[C@H]2[C@H](c3cc(Cl)c(Cl)c(Cl)c3)C2(Cl)Cl)c1F)C1CCCO1` (stereo partly drawn) [F11, N-(3-((1R,3R)-2,2-Dichloro-3-(3,4,5-trichlorophenyl)cyclopropane-1-carboxamido)-2,6-difluorophenyl)tetrahydrofuran-2-carboxamide], the “activity against YFM” value in data set [1] is reported as “exhibited activity”. Besides, the “activity against BAW (percent mortality, averaged over eight wells)” value in data set [2] is “exhibited activity”. `CCCC(=O)Nc1c(F)ccc(NC(=O)[C@H]2[C@H](c3cc(Cl)c(Cl)c(Cl)c3)C2(Cl)Cl)c1F` [F14, (1R,3R)—N-(3-Butyramido-2,4-difluorophenyl)-2,2-dichloro-3-(3,4,5-trichlorophenyl)cyclopropane-1-carboxamide]: in data set [1], the “activity against YFM” value is on record as “exhibited activity”. Also, the “activity against BAW (percent mortality, averaged over eight wells)” value in data set [2] is reported as “exhibited activity”. As for `CC(CC(=O)Nc1cccc(NC(=O)[C@H]2[C@H](c3cc(Cl)cc(Cl)c3)C2(Cl)Cl)c1F)C(F)(F)F` (stereo partly drawn) [F15, (1R,3R)-2,2-Dichloro-3-(3,5-dichlorophenyl)-N-(2-fluoro-3-(4,4,4-trifluoro-3-methylbutanamido)phenyl)cyclopropane-1-carboxamide], the “activity against YFM” value in data set [1] is “exhibited activity”. Further, the “activity against BAW (percent mortality, averaged over eight wells)” value in data set [2] was “exhibited activity”. Consider `O=C(Nc1cccc(NC(=O)[C@H]2[C@H](c3cc(Cl)cc(Cl)c3)C2(Cl)Cl)c1F)c1ccc(F)cc1F` [F16, N-(3-((1R,3R)-2,2-Dichloro-3-(3,5-dichlorophenyl)cyclopropane-1-carboxamido)-2-fluorophenyl)-2,4-difluorobenzamide], for which the “activity against YFM” value in data set [1] is on record as “exhibited activity”. Also, in data set [2], the “activity against BAW (percent mortality, averaged over eight wells)” value is given as “exhibited activity”. For `CCOC(C)C(=O)Nc1cccc(NC(=O)[C@H]2[C@H](c3cc(Cl)cc(Cl)c3)C2(Cl)Cl)c1F` (stereo partly drawn) [F18, (1R,3R)-2,2-Dichloro-3-(3,5-dichlorophenyl)-N-(3-(2-ethoxypropanamido)-2-fluorophenyl)cyclopropane-1-carboxamide], in data set [1], the “activity against YFM” value is listed as “exhibited activity”. In addition, the “activity against BAW (percent mortality, averaged over eight wells)” value in data set [2] is “exhibited activity”. For the compound `O=C(Nc1cccc(NC(=O)C(F)(F)C(F)(F)C(F)(F)F)c1F)[C@H]1[C@H](c2cc(Cl)cc(Cl)c2)C1(Cl)Cl` [F19, (1R,3R)-2,2-Dichloro-3-(3,5-dichlorophenyl)-N-(2-fluoro-3-(2,2,3,3,4,4,4-heptafluorobutanamido)phenyl)cyclopropane-1-carboxamide], the “activity against YFM” value in data set [1] is listed as “exhibited activity”. Besides, in data set [2], the “activity against BAW (percent mortality, averaged over eight wells)” value is “exhibited activity”. Take `CCCC(=O)Nc1cccc(NC(=O)[C@H]2[C@H](c3cc(Cl)cc(Cl)c3)C2(Cl)Cl)c1F` [F20, (1R,3R)—N-(3-Butyramido-2-fluorophenyl)-2,2-dichloro-3-(3,5-dichlorophenyl)cyclopropane-1-carboxamide]: the “activity against YFM” value in data set [1] was “exhibited activity”. Moreover, the “activity against BAW (percent mortality, averaged over eight wells)” value in data set [2] is recorded as “exhibited activity”. With `CC(C#N)C(=O)Nc1cccc(NC(=O)[C@H]2[C@H](c3cc(Cl)cc(Cl)c3)C2(Cl)Cl)c1F` (stereo partly drawn) [F22, (1R,3R)-2,2-Dichloro-N-(3-(2-cyanopropanamido)-2-fluorophenyl)-3-(3,5-dichlorophenyl)cyclopropane-1-carboxamide], in data set [1], the “activity against YFM” value is on record as “exhibited activity”. Also, in data set [2], the “activity against BAW (percent mortality, averaged over eight wells)” value is reported as “exhibited activity”. Turning to `O=C(Nc1cc(NC(=O)[C@H]2[C@H](c3ccc(F)c(C(F)(F)F)c3)C2(Cl)Cl)ccc1Cl)c1cc(F)cc(F)c1` [F100, N-(2-Chloro-5-((1R,3R)-2,2-dichloro-3-(4-fluoro-3-(trifluoromethyl)phenyl)cyclopropane-1-carboxamido)phenyl)-3,5-difluorobenzamide], in data set [1], the “activity against YFM” value is on record as “exhibited activity”. Further, in data set [2], the “activity against BAW (percent mortality, averaged over eight wells)” value is “exhibited activity”. For `O=C(Nc1cc(NC(=O)[C@H]2[C@H](c3cc(Cl)cc(Cl)c3)C2(Cl)Cl)ccc1Cl)c1ncc(F)cc1F` [F106, N-(2-Chloro-5-((1R,3R)-2,2-dichloro-3-(3,5-dichlorophenyl)cyclopropane-1-carboxamido)phenyl)-3,5-difluoropicolinamide], the “activity against YFM” value in data set [1] is reported as “exhibited activity”. Further, the “activity against BAW (percent mortality, averaged over eight wells)” value in data set [2] is “exhibited activity”. Take `O=C(Nc1cc(NC(=O)[C@H]2[C@H](c3ccc(F)c(C(F)(F)F)c3)C2(Cl)Cl)ccc1Cl)c1cnc(F)c(F)c1` [F109, N-(2-Chloro-5-((1R,3R)-2,2-dichloro-3-(4-fluoro-3-(trifluoromethyl)phenyl)cyclopropane-1-carboxamido)phenyl)-5,6-difluoronicotinamide]: the “activity against YFM” value in data set [1] was “exhibited activity”. Also, the “activity against BAW (percent mortality, averaged over eight wells)” value in data set [2] was “exhibited activity”.

These data come from patent publication US20240343681A1, “MOLECULES HAVING PESTICIDAL UTILITY AND INTERMEDIATES AND PROCESSES RELATED THERETO” (priority 2021, published 2024).
